Publication PMC11845477, “Exploring the principles behind antibiotics with limited resistance” (Nature Communications, 2025)
Where a SMILES comes first, the peptide text is derived from it. Bridges are numbered along the chain shown (N, C = ends). [ ]: non-standard residue; d: D form. The star is where a group is joined. X1 = NC[C@@H](CC(=O)*)c1cccc(Cl)c1; X2 = CC[C@H](C)CCCCC(=O)*; Dab = NCC[C@H](N)C(=O)O; Dap = NC[C@H](N)C(=O)O

Tests used:
[1] = test system: K. pneumoniae ATCC 10031 (SEN) and K. pneumoniae ATCC 700603 (MDR); assay: microbe, parasite or virus in culture; assay type: cell-based, Klebsiella pneumoniae; conditions: for MIC: across three biological replicates
Experimental: This study focused on multiple bacterial strains, as follows. For the FoR and ALE experiments, 2 strains per species were chosen: E. coli ATCC 25922, K. pneumoniae ATCC 10031, A. baumannii ATCC 17978, and P. aeruginosa ATCC BAA-3107 as sensitive (SEN) strains, and E. coli NCTC13846, K. pneumoniae ATCC 700603, A. baumannii ATCC BAA-1605 and P. aeruginosa LESB58 as multi-drug resistant (MDR) strains. Functional metagenomic screens were performed with E. coli ATCC 25922 and K. pneumoniae ATCC 10031 strains. To determine the dose-kill properties of the different antibiotics, an E. coli strain (ATCC 25922) expressing a yellow fluorescent protein (pZS2R, YFP, CHL^R) and a red fluorescent protein (pZS2R, mCherry, CHL^R) was used.
Unless otherwise indicated, cation-adjusted Mueller-Hinton Broth 2 (MHB, Millipore) medium was used throughout the study, except for SCH79797 (SCH).
A robotic liquid handling system was used to automatically prepare a 11 to 16-step serial dilution in 384-well microtiter plates (Greiner). A final concentration of 5 × 10^5 bacterial cells per mL were inoculated into each well containing 60 µL MHB medium. Bacterial cultures were incubated at 37 °C with continuous shaking (Infors shaker, 900 rpm with 3 mm throw) for 18 hours (2 replicates from each). Cell growth was monitored by measuring the optical density (OD600 values, using Biotek Synergy microplate reader). MIC was defined as the antibiotic concentration of complete growth inhibition (i.e., OD600 < 0.05). Relative MIC was calculated as follows:1 relativeMIC=MICevolved/MICancestor

E. coli BW25113-ΔacrB = assay: AcrAB-TolC efflux deficiency screen, relative MIC; assay type: cell-based, Escherichia coli; conditions: ΔacrB vs wild-type
Experimental: Fig. 6 The impact of AcrAB-TolC activity on antibiotic susceptibility. E. coli strains with AcrAB-TolC depletion (BW25113-ΔacrB) and overexpression (BW25113: pUCacrAB) were treated with various antibiotics, and the level of resistance was determined as minimum inhibitory concentration (MIC) relative to a wild-type strain, presented on a logarithmic scale (log2). Each bar represents the mean resistance level (susceptibility, i.e., level of resistance < 0; and resistance, i.e., level of resistance > 0) to antibiotics induced by acrAB overexpression (blue bars; E. coli with a multicopy plasmid of the acrAB genes (pUCacrAB)) and acrB deletion (red bars; mutant E. coli with acrB gene deletion (ΔacrB)) compared to the wild-type. Data are presented as mean values of 3 biological replicates ± SD. […] Detailed information on antibiotic and bacterial strain abbreviations is provided in Supplementary Data 1. Source data are provided as a Source Data file. For information on mode of action groups, refer to Table 1.
For the efflux deficiency screen, the ΔacrB mutant of E. coli K12 BW25113[86] and its equivalent wild-type control strain with intact gene were utilized. In contrast, BW25113 carrying a multicopy acrAB plasmid (pUCacrAB)[87] and its control strain harboring an empty pUC118 plasmid were used to overexpress the acrAB efflux system. According to established protocols via P1 transduction, the suitable acrB deletion mutant (ΔacrB BW25113) was created, while the pUCacrAB plasmid was kindly provided by Kunihiko Nishino and Akihito Yamaguchi (Osaka University, Osaka, Japan). In a prior study, both strains were employed. Since the copy number of the plasmid carrying the efflux pump is controlled by native promoters, external induction is unnecessary.
Antibiotic susceptibilities of these strains were evaluated using a modified version of the standard broth dilution method. In 96-well microtiter plates containing fresh MHB medium, or supplemented MS medium in case of SCH79797, ten-step serial dilutions of an antibiotic from a stock solution were made (2 wells per antibiotic concentration per strain). The two wells contained only supplemented media without any antibiotics […]. Strains were incubated overnight at 37 °C with continuous agitation. Additionally, plasmid containing strains were grown in the presence of 100 µg/mL ampicillin. The culture was diluted to yield a cell suspension with 5 ×10^5 cells/mL and then inoculated into the wells of the microtiter plate. To determine the medium’s background OD value, the first column of the 96-well plate contained solely MHB without inoculum. Prior to the measurement, the plates were incubated at 37 °C with continuous shaking at 900 rpm with 3 mm throw. OD600 values were determined in a microplate reader after 18 hours of incubation (Biotek Synergy 2). The minimum inhibitory concentration (MIC) was determined as the lowest concentration of antibiotic at which the OD600 values were less than 0.05 after subtracting the background value. The log2 of the relative MIC was computed using the following equation:2 log2relativeMICpUCacrAB=MICpUCacrAB/MICpUC118 3 log2relativeMICΔacrB=MICΔacrB/MICwt

[2] = Klebsiella pneumoniae ATCC 10031 (KP-SEN), ancestor strain, sheet fig 2a
[3] = Klebsiella pneumoniae, Klebsiella pneumoniae ATCC 10031 (KP-SEN)
[4] = Klebsiella pneumoniae, Klebsiella pneumoniae ATCC 700603 (KP-MDR)
[5] = Klebsiella pneumoniae ATCC 10031 (KP-SEN)
[6] = Klebsiella pneumoniae ATCC 700603 (KP-MDR)
[7] = ancestor KP-SEN (Klebsiella pneumoniae ATCC 10031)
[8] = Klebsiella pneumoniae ATCC 700603 (KP-MDR), ancestor strain, sheet fig 2a
[9] = ancestor KP-MDR (Klebsiella pneumoniae ATCC 700603)

Which MIC of ancestor ([1]; Klebsiella pneumoniae ATCC 10031 (KP-SEN), ancestor) does the source give for `CN(C)c1cc(CNCC(C)(C)C)c(O)c2c1C[C@H]1C[C@H]3[C@H](N(C)C)C(O)=C(C(N)=O)C(=O)[C@@]3(O)C(O)=C1C2=O` [Omadacycline] here?
The MIC of ancestor was 1 µg/mL.

And the MIC of ancestor [1, 2]?
The MIC of ancestor was 1 µg/mL.

What about the MIC [1, 3] of the same molecule?
The MIC was 1 µg/mL.

And the MIC [1, 4]?
Its MIC is > 32 µg/mL.

And the “Relative MIC (log2)” value (E. coli BW25113-ΔacrB; replicate 1)?
Its value is -2.34.

What about the “Relative MIC (log2)” value (E. coli BW25113-ΔacrB; replicate 2) of the same molecule?
The value was -2.34.

What about the “Relative MIC (log2)” value (E. coli BW25113-ΔacrB; replicate 3) of the same molecule?
The value was -2.34.

Which results are given for `CC[C@H](C)CCCCC(=O)N[C@@H](CCN)C(=O)N[C@H](C(=O)N[C@@H](CCN)C(=O)N[C@H]1CCNC(=O)[C@H]([C@@H](C)O)NC(=O)[C@H](CCN)NC(=O)[C@H](CCN)NC(=O)[C@H](CC(C)C)NC(=O)[C@@H](Cc2ccccc2)NC(=O)[C@H](CCN)NC1=O)[C@@H](C)O` [Polymyxin B] (X2-[Dab]T[Dab][Dab][Dab][dF]L[Dab][Dab]T; lactam 4-C (inferred); N-terminus assumed)?
MIC [1, 5]: 2 µg/mL; MIC [1, 6]: 1 µg/mL; Relative MIC (log2) (E. coli BW25113-ΔacrB; replicate 1): 0; Relative MIC (log2) (E. coli BW25113-ΔacrB; replicate 2): 0; Relative MIC (log2) (E. coli BW25113-ΔacrB; replicate 3): 0

`CC(C)c1ccc(Cn2ccc3c4c(N)nc(NC5CC5)nc4ccc32)cc1` [SCH79797] was tested. Which MIC of ancestor [1, 2] did it give?
The MIC of ancestor was 4 µg/mL.

And the MIC [1, 5]?
The MIC was 4 µg/mL.

And the MIC [1, 6]?
The MIC was 32 µg/mL.

And the MIC of ancestor [1, 7]?
Its MIC of ancestor is 4 µg/mL.

And the “Relative MIC (log2)” value (E. coli BW25113-ΔacrB; replicate 1)?
The value was -1.

And the “Relative MIC (log2)” value (E. coli BW25113-ΔacrB; replicate 2)?
Its value is -1.

What about the “Relative MIC (log2)” value (E. coli BW25113-ΔacrB; replicate 3) of the same molecule?
The value was -1.

For `CC(C)C[C@@H]1NC(=O)[C@@H](Cc2ccccc2)NC(=O)[C@H](CCN)NC(=O)[C@@H](NC(=O)[C@H](CN)NC(=O)[C@@H](NC(=O)C[C@H](CN)c2cccc(Cl)c2)[C@@H](C)O)CCNC(=O)[C@H]([C@@H](C)O)NC(=O)[C@H](CCN)NC(=O)[C@H](CCN)NC1=O` [SPR206] (X1-T[Dap][Dab][Dab][dF]L[Dab][Dab]T; lactam 3-C (inferred); N-terminus assumed), which MIC of ancestor [1, 2] is on record?
Its MIC of ancestor is 0.5 µg/mL.

And the MIC [1, 5]?
The MIC was 0.5 µg/mL.

What about the MIC of ancestor [1, 8] of the same molecule?
The MIC of ancestor was 0.5 µg/mL.

And the MIC [1, 6]?
Its MIC is 0.5 µg/mL.

What about the MIC of ancestor [1, 9] of the same molecule?
The MIC of ancestor was 0.5 µg/mL.

And the MIC of ancestor [1, 7]?
The MIC of ancestor was 0.5 µg/mL.

What about the “Relative MIC (log2)” value (E. coli BW25113-ΔacrB; replicate 1) of the same molecule?
The value was 0.

And the “Relative MIC (log2)” value (E. coli BW25113-ΔacrB; replicate 2)?
The value was 0.

And the “Relative MIC (log2)” value (E. coli BW25113-ΔacrB; replicate 3)?
The value was 0.

For `C[C@@H](O)[C@H]1C(=O)N2C(C(=O)O)=C(S[C@H]3CC[S@@+]([O-])C3)S[C@H]12` [Sulopenem], which MIC of ancestor [1, 2] is on record?
The MIC of ancestor was 0.0312 µg/mL.

What about the MIC [1, 5] of the same molecule?
Its MIC is 0.03125 µg/mL.

And the MIC of ancestor [1, 8]?
The MIC of ancestor was 0.5 µg/mL.

And the MIC [1, 6]?
The MIC was 0.5 µg/mL.

What about the MIC of ancestor [1, 9] of the same molecule?
Its MIC of ancestor is 0.5 µg/mL.

And the MIC of ancestor [1, 7]?
The MIC of ancestor was 0.0312 µg/mL.

And the “Relative MIC (log2)” value (E. coli BW25113-ΔacrB; replicate 1)?
The value was 0.585.

And the “Relative MIC (log2)” value (E. coli BW25113-ΔacrB; replicate 2)?
The value was 0.585.

What about the “Relative MIC (log2)” value (E. coli BW25113-ΔacrB; replicate 3) of the same molecule?
Its value is 0.585.

For `C[C@@H]1CN2c3c(cc4c(N5C(=O)OC[C@@H]5C)noc4c3F)CC3(C(=O)NC(=O)NC3=O)[C@H]2[C@H](C)O1` [Zoliflodacin], which MIC of ancestor ([1]; K. pneumoniae ATCC 10031 (KP-SEN), ancestor strain) is on record?
The MIC of ancestor was 0.125 µg/mL.

And the MIC of ancestor [1, 2]?
Its MIC of ancestor is 0.125 µg/mL.

What about the MIC [1, 3] of the same molecule?
Its MIC is 0.125 µg/mL.

And the MIC [1, 4]?
Its MIC is > 32 µg/mL.

What about the “Relative MIC (log2)” value (E. coli BW25113-ΔacrB; replicate 1) of the same molecule?
The value was -4.

And the “Relative MIC (log2)” value (E. coli BW25113-ΔacrB; replicate 2)?
Its value is -4.

What about the “Relative MIC (log2)” value (E. coli BW25113-ΔacrB; replicate 3) of the same molecule?
Its value is -4.

POL7306 was tested. Which MIC [1, 5] did it give?
The MIC was 1 µg/mL.

And the MIC [1, 6]?
Its MIC is 1 µg/mL.

For Tridecaptin M152-P3, which MIC of ancestor [1, 2] is on record?
Its MIC of ancestor is 4 µg/mL.

And the MIC [1, 5]?
The MIC was 4 µg/mL.

What about the MIC [1, 6] of the same molecule?
Its MIC is 8 µg/mL.

And the MIC of ancestor [1, 7]?
Its MIC of ancestor is 4 µg/mL.

What does the source list for polymyxin-B?
MIC of ancestor [1, 2]: 2 µg/mL; MIC of ancestor ([1]; Klebsiella pneumoniae ATCC 700603 (KP-MDR), ancestor): 1 µg/mL; MIC of ancestor [1, 8]: 1 µg/mL; MIC of ancestor [1, 7]: 2 µg/mL
